# From paper PMC4498294, “Tetrahydroisoquinolines affect the whole-cell phenotype of Mycobacterium tuberculosis by inhibiting the ATP-dependent MurE ligase” (Journal of Antimicrobial Chemotherapy, 2015)
# Read-outs that look alike come from different tables or passages of the source.
# What was measured:
# [1] = test system: M. tuberculosis H37Rv; details: virulent M. tuberculosis H37Rv strain; cited from earlier work
# [2] = Human hepatocyte stability assay; format: in vitro ADME; set-up: half-life / hepatocyte CLint: dose or concentration left out as unconfirmed
# Experimental: The compounds originally dissolved in DMSO were added to PBS to give a resulting concentration of 1 mM. Hepatocytes were then added to the solution and the reaction was incubated at 37°C for up to 120 min. Acetonitrile with internal standard was added to stop the incubation. The samples were centrifuged and the supernatant was then analysed by HPLC-MS/MS to detect the parent compound.
# [3] = target: T1, CYP 2C9 (Homo sapiens, UniProt P11712); assay: CYP450 inhibition assay, CYP 2C9; format: in vitro ADME; set-up: dose or concentration left out as unconfirmed; details: CYP baculosomes with recombinant human CYP2C9, probe fluorogenic substrate (not named); human recombinant enzymes; read-out: Mean % inhibtion CYP 2C9
# T1 construct: purchased; host or cells: baculosomes (insect-cell microsomes; own knowledge)
# Experimental: (§1) The compounds originally dissolved in DMSO were added to PBS to give a resulting concentration of […]. CYP baculosomes containing cDNA for a single human P450 isozyme, the fluorogenic substrate and the NADPH were added to the test solution. The reaction was incubated at 37°C for at least 1 h. Fluorogenic substrates metabolized by CYP enzymes result in highly fluorescent products in aqueous solution. The inhibition of CYP prevents this metabolism, which corresponds to a decrease in the fluorescence signal. The fluorescence was measured on a plate reader.
# [4] = test system: M. bovis BCG Pasteur; assay: microbe, parasite or virus in culture; format: cell-based; details: Mycobacterium tuberculosis variant bovis BCG, BCG
# [5] = target: T2, CYP 1A2 (Homo sapiens, UniProt P05177); assay: CYP450 inhibition assay, CYP 1A2; format: in vitro ADME; set-up: dose or concentration left out as unconfirmed; details: CYP baculosomes with recombinant human CYP1A2, probe fluorogenic substrate (not named); human recombinant enzymes; read-out: Mean % inhibtion CYP 1A2
# T2 construct: purchased; host or cells: baculosomes (insect-cell microsomes; own knowledge)
# T2 sequence (P05177 1-516): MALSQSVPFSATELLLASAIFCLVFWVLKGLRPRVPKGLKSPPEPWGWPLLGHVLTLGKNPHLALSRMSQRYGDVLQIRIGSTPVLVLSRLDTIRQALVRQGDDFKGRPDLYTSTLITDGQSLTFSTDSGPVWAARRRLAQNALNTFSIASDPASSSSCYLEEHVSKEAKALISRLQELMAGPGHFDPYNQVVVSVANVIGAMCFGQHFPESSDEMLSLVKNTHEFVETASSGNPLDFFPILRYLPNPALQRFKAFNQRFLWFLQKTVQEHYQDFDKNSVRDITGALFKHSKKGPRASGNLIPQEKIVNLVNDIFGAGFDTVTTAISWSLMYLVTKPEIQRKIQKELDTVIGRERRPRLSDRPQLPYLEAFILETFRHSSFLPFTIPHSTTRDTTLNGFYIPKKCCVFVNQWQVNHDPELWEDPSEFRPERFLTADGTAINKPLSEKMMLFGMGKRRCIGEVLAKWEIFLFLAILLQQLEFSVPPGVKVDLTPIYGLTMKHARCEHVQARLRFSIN
# Experimental: as §1
# [6] = Human microsome stability assay; format: in vitro ADME; set-up: half-life: dose or concentration left out as unconfirmed
# Experimental: Microsomes and NADPH were then added to the solution and the reaction was incubated at 37°C for up to 60 min. Acetonitrile (300 μL) with internal standard was added to stop the incubation. The samples were centrifuged and the supernatant was then analysed by HPLC-MS/MS to detect the parent compound.
# [7] = test system: murine macrophage cell line RAW264.7; assay: Eukaryotic cell toxicity assay, RAW264.7; format: cell-based; details: Mus musculus, read-out: GIC50 RAW264.7
# [8] = target: T3, CYP 2C19 (Homo sapiens, UniProt P33261); assay: CYP450 inhibition assay, CYP 2C19; format: in vitro ADME; set-up: dose or concentration left out as unconfirmed; details: CYP baculosomes with recombinant human CYP2C19, probe fluorogenic substrate (not named); human recombinant enzymes; read-out: Mean % inhibtion CYP 2C19
# T3 construct: purchased; host or cells: baculosomes (insect-cell microsomes; own knowledge)
# Experimental: as §1
# [9] = target: P-glycoprotein (Homo sapiens, UniProt P08183); assay: in vitro; details: dog, MDCK-MDR1
# Experimental: All dose solutions contained 10 μM propranolol as an internal standard. MDCK cells carrying the MDR-1 gene were used to seed filters that were exposed to a fixed volume of the donor solution containing the compound of interest. The compound's ability to traverse the monolayer and appear in the receiver compartment was measured over a 30 min period. Bidirectional permeability measurements were derived by examining the transfer of compound from both the apical to the basolateral compartment and vice versa. Sample analysis was conducted using LC-MS/MS with the detection settings optimized for each test compound.
# [10] = test system: MDR-1; assay: MDCK cell permeability assay; format: in vitro ADME, canine; details: dog, MDCK-MDR1, MDCK MDR-1 monolayer, 10 μM, 30 min
# [11] = test system: MDCK cells carrying the MDR-1 gene; assay: MDCK cell permeability assay; format: in vitro ADME, canine; details: MDCK MDR-1 monolayer, 10 μM, 30 min, apical to basolateral
# [12] = MDCK cell permeability assay; format: in vitro ADME, canine; details: dog, MDCK-MDR1; MDCK MDR-1 monolayer, class
# [13] = target: T4, CYP 3A4 (Homo sapiens, UniProt P08684); assay: CYP450 inhibition assay, CYP 3A4; format: in vitro ADME; set-up: dose or concentration left out as unconfirmed; details: CYP baculosomes with recombinant human CYP3A4, probe fluorogenic substrate (not named); human recombinant enzymes; read-out: Mean % inhibtion CYP 3A4
# T4 construct: purchased; host or cells: baculosomes (insect-cell microsomes; own knowledge)
# Experimental: as §1
# [14] = Aqueous kinetic solubility; format: physicochemical; details: aqueous with cosolvent or surfactant or cyclodextrin, kinetic from dmso stock, 5% DMSO in PBS, 21°C
# Experimental: The compounds were equilibrated in 5% DMSO in PBS at 21°C for 24 h. The samples were then centrifuged at 15000 g for 10 min. A 100 μL sample of the supernatant was carefully collected and the soluble amount of compound quantified using LC-MS/MS. A standard curve for each compound was prepared in 100% acetonitrile. Solubility results are reported as low (<0.1 mg/mL), medium (0.1–0.5 mg/mL) and high (>0.5 mg/mL).
# [15] = target: T5, CYP 2D6 (Homo sapiens, UniProt P10635); assay: CYP450 inhibition assay, CYP 2D6; format: in vitro ADME; set-up: dose or concentration left out as unconfirmed; details: CYP baculosomes with recombinant human CYP2D6, probe fluorogenic substrate (not named); human recombinant enzymes; read-out: Mean % inhibtion CYP 2D6
# T5 construct: purchased; host or cells: baculosomes (insect-cell microsomes; own knowledge)
# Experimental: as §1
# [16] = target: MurE (Rv2158c) protein of M. tuberculosis H37Rv (Mycobacterium tuberculosis, UniProt P9WJL3); assay: Mtb-MurE HPLC inhibition assay; format: biochemical; details: HPLC assay, 37°C 30 min
# Sequence of MurE (Rv2158c) protein of M. tuberculosis H37Rv (P9WJL3 whole entry, looked up): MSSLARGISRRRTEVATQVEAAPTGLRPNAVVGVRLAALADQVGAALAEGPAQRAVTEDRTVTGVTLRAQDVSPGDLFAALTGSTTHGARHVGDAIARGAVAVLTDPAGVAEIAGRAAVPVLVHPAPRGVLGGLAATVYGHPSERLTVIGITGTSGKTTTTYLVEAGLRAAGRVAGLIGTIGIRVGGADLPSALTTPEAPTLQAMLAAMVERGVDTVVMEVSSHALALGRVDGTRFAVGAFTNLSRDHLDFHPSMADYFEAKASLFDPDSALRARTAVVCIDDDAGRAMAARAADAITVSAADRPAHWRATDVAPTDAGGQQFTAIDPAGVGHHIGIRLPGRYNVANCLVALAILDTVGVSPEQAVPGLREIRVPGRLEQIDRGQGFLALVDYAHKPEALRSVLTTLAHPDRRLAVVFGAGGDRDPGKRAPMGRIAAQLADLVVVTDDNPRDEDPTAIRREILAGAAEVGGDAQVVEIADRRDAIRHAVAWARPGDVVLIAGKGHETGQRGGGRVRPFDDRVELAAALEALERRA
# T1 sequence (P11712 whole entry): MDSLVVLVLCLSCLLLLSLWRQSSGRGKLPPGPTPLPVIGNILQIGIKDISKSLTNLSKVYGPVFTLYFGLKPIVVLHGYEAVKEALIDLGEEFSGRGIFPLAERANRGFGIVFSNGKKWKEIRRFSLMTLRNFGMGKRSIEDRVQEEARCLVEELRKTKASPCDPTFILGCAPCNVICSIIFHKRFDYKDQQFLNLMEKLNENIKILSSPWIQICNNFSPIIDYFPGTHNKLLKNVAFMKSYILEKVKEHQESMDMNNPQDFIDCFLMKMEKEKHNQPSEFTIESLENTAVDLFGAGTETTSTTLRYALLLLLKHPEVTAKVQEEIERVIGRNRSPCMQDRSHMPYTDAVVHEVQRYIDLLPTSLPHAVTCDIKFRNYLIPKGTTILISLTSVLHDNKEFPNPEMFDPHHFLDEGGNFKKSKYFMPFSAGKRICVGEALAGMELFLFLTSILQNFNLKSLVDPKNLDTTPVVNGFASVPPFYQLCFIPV
# T4 sequence (P08684 whole entry): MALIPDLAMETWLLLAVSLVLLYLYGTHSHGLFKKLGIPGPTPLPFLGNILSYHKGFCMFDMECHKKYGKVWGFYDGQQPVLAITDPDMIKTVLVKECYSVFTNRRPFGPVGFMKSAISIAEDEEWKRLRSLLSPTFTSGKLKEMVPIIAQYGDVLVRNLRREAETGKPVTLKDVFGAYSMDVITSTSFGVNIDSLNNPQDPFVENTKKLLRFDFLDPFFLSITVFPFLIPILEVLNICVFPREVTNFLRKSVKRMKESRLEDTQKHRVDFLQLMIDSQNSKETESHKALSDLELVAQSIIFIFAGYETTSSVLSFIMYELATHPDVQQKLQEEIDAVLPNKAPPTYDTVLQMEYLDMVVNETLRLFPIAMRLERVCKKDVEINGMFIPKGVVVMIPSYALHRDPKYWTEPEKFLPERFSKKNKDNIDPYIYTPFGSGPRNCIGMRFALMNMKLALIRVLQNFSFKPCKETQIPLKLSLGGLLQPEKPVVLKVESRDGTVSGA
# T3 sequence (P33261 whole entry): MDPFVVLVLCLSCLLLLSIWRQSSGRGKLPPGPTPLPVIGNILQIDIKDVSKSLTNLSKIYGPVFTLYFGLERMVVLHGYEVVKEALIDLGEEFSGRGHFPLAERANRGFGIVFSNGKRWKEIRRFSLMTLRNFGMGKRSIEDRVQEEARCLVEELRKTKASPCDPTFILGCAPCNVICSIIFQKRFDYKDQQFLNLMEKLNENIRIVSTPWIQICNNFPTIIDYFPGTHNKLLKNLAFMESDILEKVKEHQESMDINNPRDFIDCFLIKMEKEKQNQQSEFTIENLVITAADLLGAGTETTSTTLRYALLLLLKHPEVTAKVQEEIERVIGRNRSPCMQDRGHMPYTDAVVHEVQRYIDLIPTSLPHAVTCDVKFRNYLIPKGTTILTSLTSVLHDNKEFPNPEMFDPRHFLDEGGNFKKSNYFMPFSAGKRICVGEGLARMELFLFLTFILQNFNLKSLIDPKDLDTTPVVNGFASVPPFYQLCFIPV
# Sequence of P-glycoprotein (P08183 whole entry): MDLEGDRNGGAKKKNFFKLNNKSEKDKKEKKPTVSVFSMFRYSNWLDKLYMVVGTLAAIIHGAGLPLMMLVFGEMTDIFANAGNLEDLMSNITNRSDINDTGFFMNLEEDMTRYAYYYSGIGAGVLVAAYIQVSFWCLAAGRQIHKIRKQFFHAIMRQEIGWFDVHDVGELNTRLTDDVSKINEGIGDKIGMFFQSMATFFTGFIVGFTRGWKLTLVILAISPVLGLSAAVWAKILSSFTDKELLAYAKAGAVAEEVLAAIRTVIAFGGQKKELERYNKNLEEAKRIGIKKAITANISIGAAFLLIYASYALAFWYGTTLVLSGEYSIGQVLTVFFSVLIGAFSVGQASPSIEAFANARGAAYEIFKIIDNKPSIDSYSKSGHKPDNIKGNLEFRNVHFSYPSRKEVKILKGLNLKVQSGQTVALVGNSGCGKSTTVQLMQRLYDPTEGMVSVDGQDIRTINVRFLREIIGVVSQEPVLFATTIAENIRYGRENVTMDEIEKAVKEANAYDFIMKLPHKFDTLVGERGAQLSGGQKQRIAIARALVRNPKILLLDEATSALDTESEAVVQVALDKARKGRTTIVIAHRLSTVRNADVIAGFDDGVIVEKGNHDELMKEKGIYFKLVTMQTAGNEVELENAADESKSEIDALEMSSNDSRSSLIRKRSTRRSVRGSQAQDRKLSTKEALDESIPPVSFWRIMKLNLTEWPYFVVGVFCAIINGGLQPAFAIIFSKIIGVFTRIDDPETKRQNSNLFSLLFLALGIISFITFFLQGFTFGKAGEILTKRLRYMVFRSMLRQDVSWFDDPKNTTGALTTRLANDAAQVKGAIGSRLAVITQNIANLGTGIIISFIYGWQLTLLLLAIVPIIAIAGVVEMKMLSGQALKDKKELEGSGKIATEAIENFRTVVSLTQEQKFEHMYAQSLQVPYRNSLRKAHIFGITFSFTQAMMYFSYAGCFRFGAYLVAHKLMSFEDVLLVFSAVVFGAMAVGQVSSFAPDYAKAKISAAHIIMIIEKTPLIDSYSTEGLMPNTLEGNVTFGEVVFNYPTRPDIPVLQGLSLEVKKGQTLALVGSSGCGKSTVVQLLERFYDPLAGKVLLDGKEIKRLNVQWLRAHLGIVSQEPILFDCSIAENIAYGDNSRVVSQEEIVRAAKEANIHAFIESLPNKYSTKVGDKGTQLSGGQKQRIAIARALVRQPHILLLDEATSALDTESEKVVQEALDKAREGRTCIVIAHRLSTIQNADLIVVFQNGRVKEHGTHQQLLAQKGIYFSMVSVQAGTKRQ
# T5 sequence (P10635 whole entry): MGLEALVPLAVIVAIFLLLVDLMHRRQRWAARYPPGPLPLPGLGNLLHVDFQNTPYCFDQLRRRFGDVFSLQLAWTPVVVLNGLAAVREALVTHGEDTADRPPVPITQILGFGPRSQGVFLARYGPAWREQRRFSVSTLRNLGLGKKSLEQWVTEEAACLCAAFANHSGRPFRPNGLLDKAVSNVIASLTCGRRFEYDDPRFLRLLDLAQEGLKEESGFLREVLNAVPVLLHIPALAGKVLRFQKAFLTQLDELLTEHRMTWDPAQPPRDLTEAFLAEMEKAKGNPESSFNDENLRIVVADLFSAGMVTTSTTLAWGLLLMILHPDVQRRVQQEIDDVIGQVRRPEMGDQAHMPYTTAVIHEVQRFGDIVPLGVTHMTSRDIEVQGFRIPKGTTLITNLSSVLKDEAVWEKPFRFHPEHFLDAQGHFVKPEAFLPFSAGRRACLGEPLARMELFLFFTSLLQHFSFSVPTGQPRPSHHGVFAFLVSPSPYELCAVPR
compound,measurement,setting,value
COc1cc2c(cc1OC)-c1c3c(cc4c1[C@H](C2)NCC4)OCO3 [(-)-Nordicentrine],MIC M. tuberculosis H37Rv,[1],12.5 µg/mL
Oc1ccc(Br)c2c1C(Cc1ccc3c(c1)OCO3)NCC2 (stereo not drawn) [Compound 28],hepatic extraction ratio,[2]; hepatocyte stability assay,> 0.6
same,t1/2 hepatocytes,[2]; human hepatocytes,23.2 min
same,half-life,"[2]; human, hepatocytes, human hepatocytes, read-out: t1/2 hepatocytes",23.2 min
same,hepatocyte CLint,"[2]; human, hepatocytes, in vivo hepatic intrinsic clearance prediction values",17.4 µL/min/1e6 cells
same,inhibition,[3],81.8%
same,MIC,"[4]; 336 h, read-out: MIC M. bovis BCG, SPOTi, 2 weeks at 37°C",20 µg/mL
same,MIC,"[4]; read-out: MIC M. bovis BCG, SPOTi, value in square brackets",55 µM
same,inhibition,[5],81.4%
same,t1/2 microsomes,[6]; human liver microsomes,9.8 min
same,Mean % microsome turnover,"[6]; human liver microsomes, 0 min",-5.33e-15%
same,Mean compound remaining,"[6]; human liver microsomes, 0 min",100.00
same,Microsomal stability,"[6]; human liver microsomes, 0 min",4.60
same,Mean % microsome turnover,"[6]; human liver microsomes, 15 min",64.61%
same,Mean compound remaining,"[6]; human liver microsomes, 15 min",35.39
same,Microsomal stability,"[6]; human liver microsomes, 15 min",3.57
same,Mean % microsome turnover,"[6]; human liver microsomes, 30 min",88.00%
same,Mean compound remaining,"[6]; human liver microsomes, 30 min",12.00
same,Microsomal stability,"[6]; human liver microsomes, 30 min",2.48
same,Mean % microsome turnover,"[6]; human liver microsomes, 60 min",92.24%
same,Mean compound remaining,"[6]; human liver microsomes, 60 min",7.76
same,Microsomal stability,"[6]; human liver microsomes, 60 min",2.03
same,half-life,"[6]; human, liver microsomes, read-out: t1/2 microsomes",9.81 min
same,IC50,"[7]; RAW264.7, value in square brackets",130 µM
same,IC50,[7]; murine macrophage cell line RAW264.7,47 µg/mL
same,inhibition,[8],97.5%
same,efflux ratio,[9],11.3
same,"Papp A→B at 30 min, 10 μM",[10]; apical to basolateral,1.7 ×10⁻⁶ cm/s
same,"Papp B→A at 30 min, 10 μM",[10]; basolateral to apical,18.8 ×10⁻⁶ cm/s
same,Papp A-B,[11],"1.7 cm/sec, x10-6"
same,"Papp A→B at 30 min, 10 μM",[12],< 2 ×10⁻⁶ cm/s
same,inhibition,[13],93.2%
same,solubility kinetic at 24 h,[14],800 µg/mL
same,solubility at 24 h,[14]; read-out: aqueous solubility (class),> 500 µg/mL
same,inhibition,[15],92.9%
same,IC50,[16],< 111 µM
